Here are results for 34 molecules from US9670206B2, “Pyrido[4,3-B]pyrazine-2-carboxamides as neurogenic agents for the treatment of neurodegenerative disorders” (Hoffmann-La Roche Inc., priority 2013, dated 2017).

The test system of the assay is human embryonic stem cell derived neural stem cells (NSCs). In words: Neural stem cell proliferation assay (neurogenesis assay, ATP levels by CellTiterGlo). The assay is classed as cell-based. The following applies: 96 h, compound concentration at which 150% activity of control (100%) is reached, NSC proliferation, ATP readout after 4 days incubation. As to the method: Neural Stem Cell Proliferation Assay
Neurogenic properties of small molecules are determined based on the proliferation of human embryonic stem cell derived neural stem cells (NSCs) which were derived via a dual smad inhibition as previously described (Chambers, S. M., et al., Highly efficient neural conversion of human ES and iPS cells by dual inhibition of SMAD signaling, Nature biotechnology, 2009. 27(3): p. 275-80.) Compounds respond is measured by the increase in cells based on ATP levels (Promega:CellTiterGlo®) after an incubation period of 4 days. NSCs are thawed and expanded over 3 passages. On the 14th day, NSCs are seeded in Polyornithin/Laminin coated 384 well plates at a cell density of 21,000 cells/cm^2 in a media volume of 38 μl. 4 hours after cell seeding, compound solutions are added at a volume of 2 μl. Stock solutions of the compounds (water, 5% DMSO) are diluted to obtain a dose response (11 points, dilution factor is 2), ranging from 8 μM to 8 nM. Controls are run to consistently determine the neurogenic properties of the cells: Negative (neutral) control is cell culture Media (final DMSO concentration: 0.25%). Positive controls are: • 1. cell culture Media+100 ng/ml FGF2 (final DMSO concentration: 0.1%) • 2. cell culture Media+20 ng/ml EGF (final DMSO concentration: 0.1%) • 3. cell culture Media+100 ng/ml Wnt3a (final DMSO concentration: 0.1%) After 4 days incubation at 37° C., 5% CO2, the amount of ATP per well is quantified. The ATP concentration is proportional to the cell number. ATP is quantified by using the Promega CellTiterGlo® kit. The CellTiterGlo® reagents contain a cell lysis buffer, a thermo stable luciferase (UltraGlo™ recombinant luciferase), magnesium and luciferin. Luciferin reacts with ATP producing oxyluciferin, AMP and light. The luminescence signal is proportional to the ATP content. The value of negative (neutral) control is determined for each assay plate by taking the average of 16 negative control wells. The neurogenic compound response is calculated for each compound as (compound/Negative Control)*100. The values of EC150 from the dose response curve are determined for each test compound. The EC150 is the compound concentration at which 150% activity of control (100%) is reached.
On to `NC(=O)c1cnc2cncc(-c3ccc(Cl)nc3)c2n1` [Example 18, 8-(6-Chloropyridin-3-yl)pyrido[4,3-b]pyrazine-2-carboxamide], for which the EC (150% of control) was 0.21 µM. As for `NC(=O)c1cnc2cncc(-c3ccc(OC(F)(F)F)cc3)c2n1` [Example 19, 8-(4-(Trifluoromethoxy)phenyl)pyrido[4,3-b]pyrazine-2-carboxamide], the EC (150% of control) stood at 0.09 µM.

On to `NC(=O)c1cnc2cncc(-c3cc(C(F)(F)F)ccc3F)c2n1` [Example 20, 8-(2-Fluoro-5-(trifluoromethyl)phenyl)pyrido[4,3-b]pyrazine-2-carboxamide], for which the EC (150% of control) worked out at 0.22 µM.

`NC(=O)c1cnc2cncc(-c3cccc(OC(F)(F)F)c3)c2n1` [Example 21, 8-(3-(Trifluoromethoxy)phenyl)pyrido[4,3-b]pyrazine-2-carboxamide]: the EC (150% of control) was determined as 0.21 µM.

For `NC(=O)c1cnc2cncc(-c3ccc(Cl)cc3F)c2n1` [Example 22, 8-(4-Chloro-2-fluorophenyl)pyrido[4,3-b]pyrazine-2-carboxamide], the EC (150% of control) worked out at 0.07 µM.

Regarding `NC(=O)c1cnc2cncc(-c3ccc(Cl)c(F)c3)c2n1` [Example 23, 8-(4-Chloro-3-fluorophenyl)pyrido[4,3-b]pyrazine-2-carboxamide], the EC (150% of control) is 0.1 µM.

With `NC(=O)c1cnc2cncc(-c3ccc(C(F)(F)F)c(F)c3)c2n1` [Example 24, 8-(3-Fluoro-4-(trifluoromethyl)phenyl)pyrido[4,3-b]pyrazine-2-carboxamide], the EC (150% of control) is 0.18 µM. The result for `NC(=O)c1cnc2cncc(C3=CCOCC3)c2n1` [Example 25, 8-(3,6-Dihydro-2H-pyran-4-yl)pyrido[4,3-b]pyrazine-2-carboxamide] reads 0.66 µM; that for `NC(=O)c1cnc2cncc(-c3cccc(C(F)(F)F)c3)c2n1` [Example 26, 8-(3-(Trifluoromethyl)phenyl)pyrido[4,3-b]pyrazine-2-carboxamide], 0.43 µM; that for `NC(=O)c1cnc2cncc(-c3ccc(F)c(F)c3)c2n1` [Example 27, 8-(3,4-Difluorophenyl)pyrido[4,3-b]pyrazine-2-carboxamide], 0.12 µM. Next, `O=C(c1cnc2cncc(-c3ccc(C(F)(F)F)cc3)c2n1)N1CCC(O)C1` (stereo not shown) [Example 28, (3-Hydroxypyrrolidin-1-yl)(8-(4-(trifluoromethyl)phenyl)pyrido[4,3-b]pyrazin-2-yl)methanone]: 0.29 µM; `NC(=O)c1cnc2cncc(-c3ccc(CO)cc3)c2n1` [Example 29, 8-(4-(Hydroxymethyl)phenyl)pyrido[4,3-b]pyrazine-2-carboxamide]: 0.05 µM.

In turn, `O=C(c1cnc2cncc(-c3ccc(Cl)cc3)c2n1)N1CCC(O)C1` (stereo not shown) [Example 30, (8-(4-Chlorophenyl)pyrido[4,3-b]pyrazin-2-yl)(3-hydroxypyrrolidin-1-yl)methanone] displayed an EC (150% of control) of 0.69 µM. Next, `O=C(NCc1ccccc1)c1cnc2cncc(-c3cccnc3)c2n1` [Example 31, N-Benzyl-8-(pyridin-3-yl)pyrido[4,3-b]pyrazine-2-carboxamide]: 0.47 µM; `O=C(c1cnc2cncc(-c3ccc(Cl)cc3)c2n1)N1CCS(=O)(=O)CC1` [Example 32, [8-(4-Chlorophenyl)pyrido[3,4-b]pyrazin-2-yl]-(1,1-dioxo-1,4-thiazinan-4-yl)methanone]: 0.84 µM; `O=C(c1cnc2cncc(-c3ccc(C(F)(F)F)cc3)c2n1)N1CCS(=O)(=O)CC1` [Example 33, (1,1-Dioxo-1,4-thiazinan-4-yl)-[8-[4-(trifluoromethyl)phenyl]pyrido[3,4-b]pyrazin-2-yl]methanone]: 1.65 µM. With `N#Cc1ccc(-c2cncc3ncc(C(N)=O)nc23)cc1` [Example 34, 8-(4-Cyanophenyl)pyrido[4,3-b]pyrazine-2-carboxamide], the EC (150% of control) came out at 0.15 µM. The result for `CC(C)(C)NC(=O)c1cnc2cncc(-c3ccc(C(F)(F)F)cc3)c2n1` [Example 35, N-tert-Butyl-8-(4-(trifluoromethyl)phenyl)pyrido[4,3-b]pyrazine-2-carboxamide] reads 0.32 µM; that for `CC(NC(=O)c1cnc2cncc(-c3ccc(Cl)cc3Cl)c2n1)C(C)(C)O` (stereo not shown) [Example 36, 8-(2,4-Dichlorophenyl)-N-(3-hydroxy-3-methylbutan-2-yl)pyrido[4,3-b]pyrazine-2-carboxamide], 1.5 µM; that for `CC(NC(=O)c1cnc2cncc(-c3ccccc3Cl)c2n1)C(C)(C)O` (stereo not shown) [Example 37, 8-(2-Chlorophenyl)-N-(3-hydroxy-3-methylbutan-2-yl)pyrido[4,3-b]pyrazine-2-carboxamide], 1.13 µM. Next, `O=C(c1cnc2cncc(-c3ccc(Cl)cc3F)c2n1)N1CCC(O)C1` (stereo not shown) [Example 38, (8-(4-Chloro-2-fluorophenyl)pyrido[4,3-b]pyrazin-2-yl)(3-hydroxypyrrolidin-1-yl)methanone]: 0.1 µM; `O=C(c1cnc2cncc(-c3ccc(Cl)cc3Cl)c2n1)N1CCC(O)C1` (stereo not shown) [Example 39, (8-(2,4-Dichlorophenyl)pyrido[4,3-b]pyrazin-2-yl)(3-hydroxypyrrolidin-1-yl)methanone]: 0.11 µM.

Molecule `O=C(c1cnc2cncc(-c3cc(C(F)(F)F)ccc3F)c2n1)N1CCC(O)C1` (stereo not shown) [Example 40, (8-(2-Fluoro-5-(trifluoromethyl)phenyl)pyrido[4,3-b]pyrazin-2-yl)(3-hydroxypyrrolidin-1-yl)methanone] showed an EC (150% of control) of 0.93 µM.

The molecule `O=C(c1cnc2cncc(-c3cccc(OC(F)(F)F)c3)c2n1)N1CCC(O)C1` (stereo not shown) [Example 41, (3-Hydroxypyrrolidin-1-yl)(8-(3-(trifluoromethoxy)phenyl)pyrido[4,3-b]pyrazin-2-yl)methanone] displayed an EC (150% of control) of 0.6 µM.

The molecule `NC(=O)c1cnc2cncc(N3CCC(F)(F)CC3)c2n1` [Example 42, 8-(4,4-Difluoropiperidin-1-yl)pyrido[4,3-b]pyrazine-2-carboxamide] showed an EC (150% of control) of 0.09 µM. Regarding `O=C(c1cnc2cncc(-c3ccc(Cl)nc3)c2n1)N1CCC(O)C1` (stereo not shown) [Example 43, (8-(6-Chloropyridin-3-yl)pyrido[4,3-b]pyrazin-2-yl)(3-hydroxypyrrolidin-1-yl)methanone], the EC (150% of control) turned out to be 0.03 µM. Regarding `O=C(c1cnc2cncc(-c3ccc(Cl)c(F)c3)c2n1)N1CCC(O)C1` (stereo not shown) [Example 44, (8-(4-Chloro-3-fluorophenyl)pyrido[4,3-b]pyrazin-2-yl)(3-hydroxypyrrolidin-1-yl)methanone], the EC (150% of control) is 0.27 µM. `O=C(c1cnc2cncc(-c3ccc(C(F)(F)F)cc3F)c2n1)N1CCC(O)C1` (stereo not shown) [Example 45, (8-(2-Fluoro-4-(trifluoromethyl)phenyl)pyrido[4,3-b]pyrazin-2-yl)(3-hydroxypyrrolidin-1-yl)methanone] came in with an EC (150% of control) of 1.48 µM. For `CC(NC(=O)c1cnc2cncc(-c3ccc(Cl)c(F)c3)c2n1)C(C)(C)O` (stereo not shown) [Example 46, 8-(4-Chloro-3-fluorophenyl)-N-(3-hydroxy-3-methylbutan-2-yl)pyrido[4,3-b]pyrazine-2-carboxamide], the EC (150% of control) came to 0.29 µM. Next, `CC(NC(=O)c1cnc2cncc(-c3cc(F)c(F)c(F)c3)c2n1)C(C)(C)O` (stereo not shown) [Example 47, N-(3-Hydroxy-3-methylbutan-2-yl)-8-(3,4,5-trifluorophenyl)pyrido[4,3-b]pyrazine-2-carboxamide]: 0.03 µM; `O=C(c1cnc2cncc(-c3ccc(CO)cc3)c2n1)N1CCC(O)C1` (stereo not shown) [Example 48, (8-(4-(Hydroxymethyl)phenyl)pyrido[4,3-b]pyrazin-2-yl)(3-hydroxypyrrolidin-1-yl)methanone]: 0.67 µM. The result for `CC(NC(=O)c1cnc2cncc(-c3ccnn3C)c2n1)C(C)(C)O` (stereo not shown) [Example 49, N-(3-Hydroxy-3-methylbutan-2-yl)-8-(1-methyl-1H-pyrazol-5-yl)pyrido[4,3-b]pyrazine-2-carboxamide] reads 0.02 µM; that for `Cn1nccc1-c1cncc2ncc(C(N)=O)nc12` [Example 50, 8-(1-Methyl-1H-pyrazol-5-yl)pyrido[4,3-b]pyrazine-2-carboxamide], 0.02 µM; that for `Cc1ccc(-c2cncc3ncc(C(=O)NC(C)C(C)(C)O)nc23)cn1` (stereo not shown) [Example 51, N-(3-Hydroxy-3-methylbutan-2-yl)-8-(6-methylpyridin-3-yl)pyrido[4,3-b]pyrazine-2-carboxamide], 0.08 µM.
